One assay has as its system CWR22Pc cells. Briefly: RNA-seq transcriptome, IST5 vs. genetic Stat5 knockdown. Format: cell-based, human. The settings on record: 3 days. From the text:
In order to evaluate the potential of IST5 for further optimization for clinical development, we compared the IST5-induced transcriptome to that of Stat5 genetic knockdown in PC cells. Stat5 expression was inhibited by lenti-viral expression of shStat5 or shCtrl in CWR22Pc cells for 3 days (Figure 2A). CWR22Pc cells were chosen as the model system because the cell line expresses both Stat5 and androgen receptor and mimics the course of disease progression in PC patient. When grown in mice as xenograft tumors, CWR22Pc cells form androgen-dependent tumors which regress in response to androgen deprivation but later recur as Castrate-Resistant Prostate Cancer (CRPC) tumors. In parallel wells, CWR22Pc cells were treated with IST5 or vehicle for 3 days. We performed RNA-seq to profile the gene expression changes and received an average of 22.4 million paired-end clean reads from each sample (Table S5). […] Most importantly, the similarity between the transcriptomes regulated by shStat5 vs. IST5 was remarkably high, with Pearson correlation coefficient ranging from 0.98–0.99 (Figure 2C).
Figure 2 IST5 show high transcriptional specificity in prostate cancer cells. […]
Total RNA of each replicate sample was isolated using RNeasy Micro Kit (QIAGEN, Valencia, CA, USA) and reverse transcribed with Super-Script III Reverse Transcriptase (Life Technologies, Brown Deer, WI, USA) following the manufacturer’s instructions. […] RNA quality was assessed by Agilent Bioanalyzer 2100 (Agilent, Santa Clara, CA, USA), and RNA integrity number (RIN) ≥7.5 was qualified for subsequent RNA-seq analysis.
We performed RNA-seq to evaluate the transcriptomes regulated by IST5 vs. genetic knockdown (lenti-shStat5) of Stat5 with corresponding controls (vehicle or lenti-shCtrl). […] Sequencing data (fastq files) were quantified with a software tool Salmon (version 1.1.0). […] Transcripts with less than 10 median read-counts were filtered out. […] Statistical significance was determined at a FDR threshold <0.01. […]

In another assay the target is T1, ABL1 (Homo sapiens, UniProt P00519).
T1 construct: purchased Reaction Biology (JAK1/2/3, TYK2); Luceome Biotechnologies KinaseSeeker (others)
T1 sequence (P00519 whole entry): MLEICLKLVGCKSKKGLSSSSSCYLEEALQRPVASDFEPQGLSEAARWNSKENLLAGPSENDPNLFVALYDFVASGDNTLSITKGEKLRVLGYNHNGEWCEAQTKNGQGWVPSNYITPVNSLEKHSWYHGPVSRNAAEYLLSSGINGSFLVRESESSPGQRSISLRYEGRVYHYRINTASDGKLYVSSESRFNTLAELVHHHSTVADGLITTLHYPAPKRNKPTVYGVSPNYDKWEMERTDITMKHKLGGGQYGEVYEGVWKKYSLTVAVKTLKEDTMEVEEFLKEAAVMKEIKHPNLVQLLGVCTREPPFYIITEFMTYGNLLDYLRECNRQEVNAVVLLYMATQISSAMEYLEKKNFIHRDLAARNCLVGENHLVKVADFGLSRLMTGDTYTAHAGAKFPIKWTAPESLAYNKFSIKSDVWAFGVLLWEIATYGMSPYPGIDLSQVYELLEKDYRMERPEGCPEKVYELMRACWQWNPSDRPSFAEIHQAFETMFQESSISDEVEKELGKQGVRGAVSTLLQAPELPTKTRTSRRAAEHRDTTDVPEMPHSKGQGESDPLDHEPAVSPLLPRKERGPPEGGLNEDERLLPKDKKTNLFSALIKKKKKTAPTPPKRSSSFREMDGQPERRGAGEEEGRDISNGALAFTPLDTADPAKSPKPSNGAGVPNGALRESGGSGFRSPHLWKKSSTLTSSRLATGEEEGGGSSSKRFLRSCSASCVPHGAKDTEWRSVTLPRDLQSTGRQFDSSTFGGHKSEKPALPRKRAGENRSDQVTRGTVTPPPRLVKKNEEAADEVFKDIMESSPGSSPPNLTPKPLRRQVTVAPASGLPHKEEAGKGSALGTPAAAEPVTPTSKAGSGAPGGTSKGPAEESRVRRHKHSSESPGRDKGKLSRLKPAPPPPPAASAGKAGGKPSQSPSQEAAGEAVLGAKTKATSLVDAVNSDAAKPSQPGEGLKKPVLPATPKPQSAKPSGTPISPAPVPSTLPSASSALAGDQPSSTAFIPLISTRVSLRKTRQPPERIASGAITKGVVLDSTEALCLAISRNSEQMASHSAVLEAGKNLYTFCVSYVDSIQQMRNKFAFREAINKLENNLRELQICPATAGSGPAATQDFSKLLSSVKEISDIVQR
Description: Kinase Seeker luminescence cell-free assay. Type of assay: binding. The settings on record: percent activity of kinase after exposure to IST5 1 µM. How it is done: (§1) For Jak1, Jak2, Jak3 and Tyk2, a radiometric filtration binding assay was conducted by Reaction Biologicals (Malvern, PA, USA) (Table 1). This radiometric assay is a cell-free assay which is based on conventional filter-binding assays, directly measuring kinase catalytic activity toward a specific substrate. For evaluation of the activity of the other kinases, the Kinase Seeker Technology was utilized (Luceome Biotechnologies, Tucson, AZ, USA), which is a luminescence-based cell-free assay. In this assay, the reassembly of luciferase fragments is mediated by the interaction of a kinase with an active site-dependent probe. The competitive displacement of the probe by an inhibitor is measured by a change in luminescence signal. Percent activity of each kinase after exposure to IST5 (1 µM) is presented.

In the next assay the target is T2, AKT2 (Homo sapiens, UniProt P31751).
T2 construct: purchased Reaction Biology (JAK1/2/3, TYK2); Luceome Biotechnologies KinaseSeeker (others)
Briefly: Kinase Seeker luminescence cell-free assay. Format: binding. To be noted: percent activity of kinase after exposure to IST5 1 µM. How it is done:
as §1

In the next assay the target is T3, AKT3 (Homo sapiens, UniProt Q9Y243).
T3 construct: purchased Reaction Biology (JAK1/2/3, TYK2); Luceome Biotechnologies KinaseSeeker (others)
T3 sequence (Q9Y243 whole entry): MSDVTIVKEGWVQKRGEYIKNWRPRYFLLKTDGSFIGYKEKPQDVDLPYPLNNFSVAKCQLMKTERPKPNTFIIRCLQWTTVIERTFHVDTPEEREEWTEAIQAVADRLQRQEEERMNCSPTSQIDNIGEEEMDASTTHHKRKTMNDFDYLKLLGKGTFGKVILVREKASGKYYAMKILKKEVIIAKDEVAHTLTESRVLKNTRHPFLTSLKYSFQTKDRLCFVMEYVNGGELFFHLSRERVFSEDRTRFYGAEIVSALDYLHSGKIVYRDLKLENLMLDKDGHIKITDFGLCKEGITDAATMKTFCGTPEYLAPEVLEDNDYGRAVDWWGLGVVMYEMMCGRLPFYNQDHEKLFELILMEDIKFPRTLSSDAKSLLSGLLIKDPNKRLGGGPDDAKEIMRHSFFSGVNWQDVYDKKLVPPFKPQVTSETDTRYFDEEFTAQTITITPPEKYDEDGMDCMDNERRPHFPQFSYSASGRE
Briefly: Kinase Seeker luminescence cell-free assay. Format: binding. To be noted: percent activity of kinase after exposure to IST5 1 µM. How it is done:
as §1

The next assay has as its target T4, FGFR2 (Homo sapiens, UniProt P21802).
T4 construct: purchased Reaction Biology (JAK1/2/3, TYK2); Luceome Biotechnologies KinaseSeeker (others)
Briefly: Kinase Seeker luminescence cell-free assay. Format: binding. To be noted: percent activity of kinase after exposure to IST5 1 µM. How it is done:
as §1

The next assay deals with FLT2/3. Briefly: Kinase Seeker luminescence cell-free assay. Type of assay: binding. To be noted: percent activity of kinase after exposure to IST5 1 µM. How it is done:
as §1

Another assay deals with T5, INSR (Homo sapiens, UniProt P06213).
T5 construct: purchased Reaction Biology (JAK1/2/3, TYK2); Luceome Biotechnologies KinaseSeeker (others)
Description: Kinase Seeker luminescence cell-free assay. Type of assay: binding. To be noted: percent activity of kinase after exposure to IST5 1 µM. On the procedure:
as §1

The next assay has as its target T6, ITK (Homo sapiens, UniProt Q08881).
T6 construct: purchased Reaction Biology (JAK1/2/3, TYK2); Luceome Biotechnologies KinaseSeeker (others)
Description: Kinase Seeker luminescence cell-free assay. Type of assay: binding. To be noted: percent activity of kinase after exposure to IST5 1 µM. On the procedure:
as §1

In a further assay the target is T7, LYN (Homo sapiens, UniProt P07948).
T7 construct: purchased Reaction Biology (JAK1/2/3, TYK2); Luceome Biotechnologies KinaseSeeker (others)
T7 sequence (P07948 whole entry): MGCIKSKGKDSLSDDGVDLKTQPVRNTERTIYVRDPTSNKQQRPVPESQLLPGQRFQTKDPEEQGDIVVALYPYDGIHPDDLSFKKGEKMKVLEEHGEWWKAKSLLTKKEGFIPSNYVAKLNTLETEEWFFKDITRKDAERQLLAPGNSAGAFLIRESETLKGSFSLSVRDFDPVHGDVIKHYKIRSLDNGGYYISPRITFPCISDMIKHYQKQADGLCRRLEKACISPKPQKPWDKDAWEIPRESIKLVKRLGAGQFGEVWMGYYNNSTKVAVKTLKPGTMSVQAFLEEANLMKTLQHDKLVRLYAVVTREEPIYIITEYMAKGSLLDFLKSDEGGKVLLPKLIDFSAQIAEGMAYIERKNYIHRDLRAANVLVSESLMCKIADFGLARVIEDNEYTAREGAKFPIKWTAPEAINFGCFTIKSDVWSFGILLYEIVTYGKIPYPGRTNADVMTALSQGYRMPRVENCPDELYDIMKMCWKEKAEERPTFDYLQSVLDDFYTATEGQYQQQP
Description: Kinase Seeker luminescence cell-free assay. Type of assay: binding. To be noted: percent activity of kinase after exposure to IST5 1 µM. How it is done:
as §1

Another assay deals with T8, MUSK (Homo sapiens, UniProt O15146).
T8 construct: purchased Reaction Biology (JAK1/2/3, TYK2); Luceome Biotechnologies KinaseSeeker (others)
Briefly: Kinase Seeker luminescence cell-free assay. Format: binding. To be noted: percent activity of kinase after exposure to IST5 1 µM. On the procedure:
as §1

The next assay has as its target T9, PIM2 (Homo sapiens, UniProt Q9P1W9).
T9 construct: purchased Reaction Biology (JAK1/2/3, TYK2); Luceome Biotechnologies KinaseSeeker (others)
Briefly: Kinase Seeker luminescence cell-free assay. Format: binding. To be noted: percent activity of kinase after exposure to IST5 1 µM. How it is done:
as §1

The target of a further assay is T10, PLK4 (Homo sapiens, UniProt O00444).
T10 construct: purchased Reaction Biology (JAK1/2/3, TYK2); Luceome Biotechnologies KinaseSeeker (others)
T10 sequence (O00444 whole entry): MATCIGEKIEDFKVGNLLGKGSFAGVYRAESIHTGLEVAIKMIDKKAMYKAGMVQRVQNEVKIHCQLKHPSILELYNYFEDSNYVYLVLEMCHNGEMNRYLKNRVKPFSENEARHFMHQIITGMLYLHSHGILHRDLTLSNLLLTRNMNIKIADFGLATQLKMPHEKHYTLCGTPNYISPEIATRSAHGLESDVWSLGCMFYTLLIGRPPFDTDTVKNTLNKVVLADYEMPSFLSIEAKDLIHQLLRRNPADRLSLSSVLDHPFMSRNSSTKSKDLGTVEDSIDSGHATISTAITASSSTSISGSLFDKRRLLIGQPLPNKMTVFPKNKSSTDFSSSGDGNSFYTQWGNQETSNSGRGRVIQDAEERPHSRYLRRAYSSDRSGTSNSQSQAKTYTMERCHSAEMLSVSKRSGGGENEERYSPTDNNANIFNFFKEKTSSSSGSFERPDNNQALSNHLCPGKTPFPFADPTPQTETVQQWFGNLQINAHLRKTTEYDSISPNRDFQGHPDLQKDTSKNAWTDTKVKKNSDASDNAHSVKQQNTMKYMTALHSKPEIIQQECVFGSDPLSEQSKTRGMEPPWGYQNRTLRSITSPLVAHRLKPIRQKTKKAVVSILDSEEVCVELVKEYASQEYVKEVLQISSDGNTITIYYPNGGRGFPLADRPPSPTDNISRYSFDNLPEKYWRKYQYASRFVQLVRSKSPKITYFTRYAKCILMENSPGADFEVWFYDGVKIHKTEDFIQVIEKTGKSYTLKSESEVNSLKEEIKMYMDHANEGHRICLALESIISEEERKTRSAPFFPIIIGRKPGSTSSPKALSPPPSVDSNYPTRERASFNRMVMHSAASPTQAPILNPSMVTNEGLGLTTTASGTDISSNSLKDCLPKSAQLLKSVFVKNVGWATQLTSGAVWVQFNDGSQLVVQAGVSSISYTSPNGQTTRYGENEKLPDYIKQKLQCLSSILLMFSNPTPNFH
Briefly: Kinase Seeker luminescence cell-free assay. Format: binding. The settings on record: percent activity of kinase after exposure to IST5 1 µM. On the procedure: as §1

For a further assay, the system named is PYK1. Briefly: Kinase Seeker luminescence cell-free assay. Type of assay: binding. To be noted: percent activity of kinase after exposure to IST5 1 µM. How it is done:
as §1

A further assay addresses T11, PYK2 (Homo sapiens, UniProt Q14289).
T11 construct: purchased Reaction Biology (JAK1/2/3, TYK2); Luceome Biotechnologies KinaseSeeker (others)
Briefly: Kinase Seeker luminescence cell-free assay. Type of assay: binding. To be noted: percent activity of kinase after exposure to IST5 1 µM. How it is done:
as §1

The target of a further assay is T12, TIE1 (Homo sapiens, UniProt P35590).
T12 construct: purchased Reaction Biology (JAK1/2/3, TYK2); Luceome Biotechnologies KinaseSeeker (others)
Briefly: Kinase Seeker luminescence cell-free assay. Format: binding. To be noted: percent activity of kinase after exposure to IST5 1 µM. On the procedure: as §1

Another assay has as its target T13, p38g (Homo sapiens, UniProt P53778).
T13 construct: purchased Reaction Biology (JAK1/2/3, TYK2); Luceome Biotechnologies KinaseSeeker (others)
Briefly: Kinase Seeker luminescence cell-free assay. Type of assay: binding. To be noted: percent activity of kinase after exposure to IST5 1 µM. How it is done: as §1

The subject of another assay is PC cells. On the set-up: method as in PMID 18316550, PMID 23942095, PMID 26362718, PMID 20966544, PMID 20233708. To be noted: cited from earlier work.
Assay [1] deals with patient-derived clinical PCs. On the set-up: method as in PMID 26026053, PMID 31548294. To be noted: 3D tumor explant cultures; cited from earlier work.
Setting [2] is: 6 µM, FDR <0.01, fold change >2 or <−2.

T11 sequence (Q14289 whole entry): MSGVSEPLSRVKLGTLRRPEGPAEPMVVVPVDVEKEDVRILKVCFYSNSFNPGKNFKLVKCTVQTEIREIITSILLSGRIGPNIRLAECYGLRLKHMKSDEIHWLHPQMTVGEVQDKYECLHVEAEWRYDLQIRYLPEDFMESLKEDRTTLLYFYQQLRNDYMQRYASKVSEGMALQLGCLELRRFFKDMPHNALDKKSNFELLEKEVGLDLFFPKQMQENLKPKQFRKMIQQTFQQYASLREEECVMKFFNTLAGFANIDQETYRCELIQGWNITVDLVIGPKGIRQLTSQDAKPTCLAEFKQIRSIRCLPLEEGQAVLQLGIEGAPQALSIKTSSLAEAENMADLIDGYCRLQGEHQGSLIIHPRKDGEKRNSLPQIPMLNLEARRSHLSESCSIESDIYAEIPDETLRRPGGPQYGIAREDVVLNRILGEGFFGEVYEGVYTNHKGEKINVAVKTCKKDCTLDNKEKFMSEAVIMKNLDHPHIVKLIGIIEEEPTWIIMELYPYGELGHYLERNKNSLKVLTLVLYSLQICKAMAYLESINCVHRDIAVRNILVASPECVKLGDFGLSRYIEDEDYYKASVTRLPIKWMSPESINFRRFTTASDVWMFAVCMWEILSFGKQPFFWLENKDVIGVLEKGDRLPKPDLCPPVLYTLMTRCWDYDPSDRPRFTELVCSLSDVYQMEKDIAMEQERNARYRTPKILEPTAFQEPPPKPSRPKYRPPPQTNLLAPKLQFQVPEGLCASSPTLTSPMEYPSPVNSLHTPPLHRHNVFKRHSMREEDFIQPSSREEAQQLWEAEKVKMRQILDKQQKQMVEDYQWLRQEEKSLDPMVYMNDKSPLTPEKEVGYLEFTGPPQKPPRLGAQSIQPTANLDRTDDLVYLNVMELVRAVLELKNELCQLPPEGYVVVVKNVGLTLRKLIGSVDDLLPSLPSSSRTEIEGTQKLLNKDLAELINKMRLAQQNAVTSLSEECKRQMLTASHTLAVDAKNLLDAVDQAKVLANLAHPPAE
T13 sequence (P53778 whole entry): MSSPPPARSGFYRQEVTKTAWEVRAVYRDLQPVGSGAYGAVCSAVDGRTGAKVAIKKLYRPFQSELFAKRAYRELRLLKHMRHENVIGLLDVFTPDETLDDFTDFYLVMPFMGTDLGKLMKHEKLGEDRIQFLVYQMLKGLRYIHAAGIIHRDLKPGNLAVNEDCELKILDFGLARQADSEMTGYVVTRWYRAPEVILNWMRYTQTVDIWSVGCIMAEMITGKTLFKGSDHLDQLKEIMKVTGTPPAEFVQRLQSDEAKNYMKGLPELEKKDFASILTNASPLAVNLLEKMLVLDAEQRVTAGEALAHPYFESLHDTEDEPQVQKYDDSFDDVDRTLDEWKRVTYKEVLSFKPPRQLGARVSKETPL
T9 sequence (Q9P1W9 whole entry): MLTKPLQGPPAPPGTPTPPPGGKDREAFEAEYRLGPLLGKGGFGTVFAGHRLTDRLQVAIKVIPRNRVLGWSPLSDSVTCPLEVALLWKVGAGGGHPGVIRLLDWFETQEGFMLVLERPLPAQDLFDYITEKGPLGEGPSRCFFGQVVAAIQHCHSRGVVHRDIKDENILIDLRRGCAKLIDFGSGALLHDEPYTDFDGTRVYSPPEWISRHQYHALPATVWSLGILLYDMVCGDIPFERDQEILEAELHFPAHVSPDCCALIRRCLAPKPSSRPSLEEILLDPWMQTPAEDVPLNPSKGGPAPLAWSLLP

Compound `O=P(O)(O)OCC1OC(n2cnc3c(NCc4ccccc4)ncnc32)C(O)C1O` (centres unmarked) [IST5] returned a transcripts down-regulated in the assay on CWR22Pc cells (setting [2]) of 765. This compound also showed a transcripts upregulated in the assay with CWR22Pc cells (setting [2]) of 324. Besides, in the assay on CWR22Pc cells (IST5 6 µM), the “Pearson correlation coefficient of transcriptomes regulated by shStat5 vs. IST5” value was 0.98–0.99. Besides, the Activity stood at 88.3% on ABL1; 94.3% on AKT2; 95.8% on AKT3; 85.7% on FGFR2; 93.6% with FLT2/3; 91.0% at INSR. For the same compound, the Activity was found to be 100.0% at ITK; 90.4% at LYN; 100.0% on MUSK; 91.8% at PIM2; 85.8% on PLK4; 93.4% in the assay on PYK1. Moreover, the Activity is on record as 95.7% on PYK2, 100.0% on TIE1 and 100.0% at p38g. Also, the “apoptotic death of PC cells” value with PC cells is given as “induce extensive apoptotic death”. Further, the “apoptotic death in patient-derived clinical PCs ex vivo” value in assay [1] is “induce apoptotic death”.

(Values after PMC7724566, “Prospects for Clinical Development of Stat5 Inhibitor IST5-002: High Transcriptomic Specificity in Prostate Cancer and Low Toxicity In Vivo” (Cancers, 2020).)
